Measurements from patent publication US20260217687A1 (NeoPhore Limited, priority 2023, published 2026).

Columns and labels:
Format in all cases: binding
[1] = target: T1, recombinant N-terminal MLH1 (residues 15-340) (Homo sapiens, UniProt P40692); assay: Fluorescence Polarisation Assay for MLH1; settings: 100 nM N-terminal MLH1, 5 nM probe compound
T1 construct: recombinant N-terminal MLH1 (residues 15-340)
T1 sequence (P40692 15-340): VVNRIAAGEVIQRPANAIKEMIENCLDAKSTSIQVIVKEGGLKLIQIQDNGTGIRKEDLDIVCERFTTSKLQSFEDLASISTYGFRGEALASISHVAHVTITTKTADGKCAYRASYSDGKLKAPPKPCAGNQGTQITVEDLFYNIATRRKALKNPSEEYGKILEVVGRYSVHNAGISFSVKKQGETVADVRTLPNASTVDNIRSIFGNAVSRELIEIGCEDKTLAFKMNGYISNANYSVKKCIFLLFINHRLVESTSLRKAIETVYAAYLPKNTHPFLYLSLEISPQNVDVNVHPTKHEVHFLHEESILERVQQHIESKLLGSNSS
In short: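 Fluorescence polarisation displacement: 100 nM MLH1 (15-340) preincubated 30 min at room temperature with compound, then 5 nM rhodamine-labelled probe added and read immediately. Buffer 25 mM HEPES pH 7.5, 250 mM NaCl, 10 mM MgCl2, 0.01% Triton X-100, 5 mM DTT; normalised to no-inhibitor and no-enzyme controls.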

[2] = target: T2, recombinant N-terminal PMS2 (residues 1-365) (Homo sapiens, UniProt P54278); assay: Fluorescence Polarisation Assay for PMS2; settings: 10 nM N-terminal PMS2, 5 nM probe compound
T2 construct: recombinant N-terminal PMS2 (residues 1-365)
T2 sequence (P54278 1-365): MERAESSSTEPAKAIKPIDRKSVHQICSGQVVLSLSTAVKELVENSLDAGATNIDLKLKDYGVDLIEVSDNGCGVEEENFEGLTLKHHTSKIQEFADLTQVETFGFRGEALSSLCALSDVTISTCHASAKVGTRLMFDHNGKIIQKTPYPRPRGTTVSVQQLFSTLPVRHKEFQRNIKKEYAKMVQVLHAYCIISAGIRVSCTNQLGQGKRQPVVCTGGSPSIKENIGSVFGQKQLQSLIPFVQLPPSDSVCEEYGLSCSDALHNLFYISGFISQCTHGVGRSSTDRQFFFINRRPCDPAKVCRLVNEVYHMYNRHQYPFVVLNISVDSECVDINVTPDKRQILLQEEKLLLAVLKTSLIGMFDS
Procedure: Fluorescence Polarisation Assay for PMS2
Test compounds, as 10 mM DMSO stocks, were dispensed into a Black Fluotrac 200 384 well medium binding plate (Greiner Bio-One, item number 781076) using a Labcyte Echo acoustic liquid handler. For single point screening, test compounds were added to wells in columns 1-22 whilst DMSO was added to wells in columns 23 and 24 to normalise the plate. For potency determination, serial dilutions of test compounds were added to wells in columns 3-22 and DMSO volume was normalised across the plate. […] 20 μL assay buffer was added to all wells in columns 1 and 24 (column 24 only for single point screening) using a MultiDrop Combi (ThermoFisher). Plates were centrifuged for 1 minute at 250 xg and were incubated at room temperature for 30 minutes prior to the addition of 20 μL of 2×(20 nM) of 5-((5-(4-((2-(2,4-dihydroxy-5-isopropylbenzoyl) isoindolin-5-yl) methyl)piperazin-1-yl) pentyl)carbamoyl)-2-(6-(dimethylamino)-3-(dimethyliminio)-3H-xanthen-9-yl)benzoate (referred to hereinafter as “probe compound”) in assay buffer (prepared from a 100 μM DMSO stock) with a MultiDrop Combi (ThermoFisher). The final concentration of N-terminal PMS2 was 10 nM and the final concentration of probe compound was 5 nM. Compound plates were centrifuged for 1 minute at 250 xg for 1 minute and were incubated at room temperature for 1 hour before being read on a PheraStar FSX (fitted with 384-well aperture spoon and 540 590 590 FP optic module). The gain and focus were adjusted before each plate was read so that the polarisation of a no enzyme control (column 24) was equal to 35 mP. Data were normalised against the no inhibitor controls (column 23) and no enzyme controls (column 24).

[3] = target: T3, recombinant HSP90α (full length with an N-terminal His6-tag) (Homo sapiens, UniProt P07900); assay: Fluorescence Polarisation Assay for HSP90; settings: 30 nM HSP90α, 5 nM FITC-Geldanymycin
T3 construct: recombinant HSP90α (full length with an N-terminal His6-tag, BPS Bioscience); His6 (N); purchased BPS Bioscience
Procedure: Fluorescence Polarisation Assay for HSP90
Test compounds, solubilised to a concentration of 10 mM in DMSO, were dispensed into a Black Fluotrac 200 384 well medium binding plates (Greiner Bio-One, item number 781076) using a Labcyte Echo acoustic liquid handler. For single point screening, test compounds were added to wells in columns 1-22 whilst for potency determination, serial dilutions of test compounds were added to wells in columns 3-22; in all cases, DMSO volume was normalised across the entire plate. All subsequent liquid handling steps were conducted using a Multidrop Combi (Thermo Scientific) or Matrix electronic pipettors (Thermo Scientific).
20 μL assay buffer was added to all wells in columns 1 and 24 (column 24 only for single point screening). Plates were centrifuged for 1 minute at 250 xg and were incubated at room temperature for 30 minutes prior to the addition of 20 μL of 2×(10 nM) of FITC-Geldanymycin in assay buffer (Abcam ab141589, prepared from a 100 μM DMSO stock). […]
Compound plates were centrifuged for 1 minute at 250 xg and were incubated at room temperature for 3 hours before being read on a PheraStar FSX (fitted with 384-well aperture spoon and 485 520 520 FP optic module). The gain and focus were adjusted before each plate was read so that the polarisation of a no enzyme control (column 24) was equal to 35 mP. […]

Compound	IC50 [1]	IC50 [2]	IC50 [3]
O=C(c1c(O)cc(C(F)F)cc1OCc1ccccc1)N1Cc2ccc(OC3CCNCC3)cc2C1 [Example 26, (2-(Benzyloxy)-4-(difluoromethyl)-6-hydroxyphenyl)(5-(piperidin-4-yloxy)isoindolin-2-yl)methanone]	< 100 nM	1000 to 10000 nM	
CN1CC[C@H](Oc2ccc3c(c2)CN(C(=O)c2c(O)cc(C(F)F)cc2OCc2ccccc2)C3)C1 [Example 4.56, (S)-(2-(Benzyloxy)-4-(difluoromethyl)-6-hydroxyphenyl)(5-((1-methylpyrrolidin-3-yl)oxy)isoindolin-2-yl)methanone]	< 100 nM	1000 to 10000 nM	
CN1CCC(Oc2ccc3c(c2)CN(C(=O)c2c(O)cc(C(F)F)cc2OCc2ccccc2)C3)CC1 [Example 4.32, (2-(Benzyloxy)-4-(difluoromethyl)-6-hydroxyphenyl)(5-((1-methylpiperidin-4-yl)oxy)isoindolin-2-yl)methanone]	< 100 nM	1000 to 10000 nM	1000 to 10000 nM
CN(C)CCOc1ccc2c(c1)CCN(C(=O)c1c(O)cc(C(F)F)cc1OCc1ccccc1)C2 [Example 4.41, (2-(Benzyloxy)-4-s(difluoromethyl)-6-hydroxyphenyl)(6-(2-(dimethylamino)ethoxy)-3,4-dihydroisoquinolin-2(1H)-yl)methanone]	100 to 1000 nM	100 to 1000 nM	
CN1CCC(Oc2ccc3c(c2)CN(C(=O)c2c(O)cc(C(F)F)cc2OCC2CC2)C3)CC1 [Example 4.59, (2-(Cyclopropylmethoxy)-4-(difluoromethyl)-6-hydroxyphenyl)(5-((1-methylpiperidin-4-yl)oxy)isoindolin-2-yl)methanone]	100 to 1000 nM		1000 to 10000 nM
CN1CCC(Oc2ccc3c(c2)CN(C(=O)c2c(O)cc(F)cc2OCc2ccccc2)C3)CC1 [Example 10.25, (2-(Benzyloxy)-4-fluoro-6-hydroxyphenyl) (5-((1-methylpiperidin-4-yl)oxy)isoindolin-2-yl) methadone]	100 to 1000 nM	1000 to 10000 nM	
